Data from the NIST ThermoML archive (doi:10.1021/acs.jced.9b00507).

Assay: xn = mol fraction of the nth substance listed
Settings: 100 kPa, Liquid; for viscosity: Concentric cylinders viscometry; for mass density: Vibrating tube method

CCCCCCn1cc[n+](C)c1.O=[N+]([O-])[O-] [1-hexyl-3-methylimidazolium nitrate] + CCCCCCCCO
Settings	mass density [kg/m3]	viscosity [mPa·s]
293.15 K, x1 = 0.0806	856.1	15.49
293.15 K, x1 = 0.1591	885.1	23.39
293.15 K, x1 = 0.2392	913.2	34.36
293.15 K, x1 = 0.3493	949.6	55.85
293.15 K, x1 = 0.4396	977.6	83.56
293.15 K, x1 = 0.5621	1013.2	149.62
293.15 K, x1 = 0.649	1036.9	222.84
293.15 K, x1 = 0.7407	1060.6	331.13
293.15 K, x1 = 0.8495	1087	504.66
293.15 K, x1 = 0.9397	1107.4	677.63
293.15 K, x1 = 1	1120.3	804.17
298.15 K, x1 = 0.0806	852.6	11.3
298.15 K, x1 = 0.1591	881.4	15.96
298.15 K, x1 = 0.2392	909.5	22.23
298.15 K, x1 = 0.3493	946	34.83
298.15 K, x1 = 0.4396	974	51.05
298.15 K, x1 = 0.5621	1009.7	89.33
298.15 K, x1 = 0.649	1033.6	133.05
298.15 K, x1 = 0.7407	1057.3	205.44
298.15 K, x1 = 0.8495	1083.8	321.84
298.15 K, x1 = 0.9397	1104.4	446.63
298.15 K, x1 = 1	1117.5	545.25
303.15 K, x1 = 0.0806	848.9	8.53
303.15 K, x1 = 0.1591	877.7	11.46
303.15 K, x1 = 0.2392	905.8	15.38
303.15 K, x1 = 0.3493	942.3	23.23
303.15 K, x1 = 0.4396	970.3	33.11
303.15 K, x1 = 0.5621	1006.1	54.2
303.15 K, x1 = 0.649	1030	78.89
303.15 K, x1 = 0.7407	1053.8	122.74
303.15 K, x1 = 0.8495	1080.4	203.15
303.15 K, x1 = 0.9397	1101.1	292.37
303.15 K, x1 = 1	1114.3	369.14
308.15 K, x1 = 0.0806	845.3	6.7
308.15 K, x1 = 0.1591	874.1	8.47
308.15 K, x1 = 0.2392	902.1	10.57
308.15 K, x1 = 0.3493	938.6	14.52
308.15 K, x1 = 0.4396	966.7	19.63
308.15 K, x1 = 0.5621	1002.5	32.58
308.15 K, x1 = 0.649	1026.4	47.1
308.15 K, x1 = 0.7407	1050.3	73.28
308.15 K, x1 = 0.8495	1077	127.64
308.15 K, x1 = 0.9397	1097.8	197.38
308.15 K, x1 = 1	1111.1	257.59
313.15 K, x1 = 0.0806	841.7	5.41
313.15 K, x1 = 0.1591	870.4	6.35
313.15 K, x1 = 0.2392	898.4	7.59
313.15 K, x1 = 0.3493	934.8	10
313.15 K, x1 = 0.4396	963	12.88
313.15 K, x1 = 0.5621	998.8	19.77
313.15 K, x1 = 0.649	1022.7	28.31
313.15 K, x1 = 0.7407	1046.7	44.73
313.15 K, x1 = 0.8495	1073.5	81.32
313.15 K, x1 = 0.9397	1094.4	135.25
313.15 K, x1 = 1	1107.8	185.67
318.15 K, x1 = 0.0806	838	4.25
318.15 K, x1 = 0.1591	866.7	4.67
318.15 K, x1 = 0.2392	894.7	5.41
318.15 K, x1 = 0.3493	931.2	7.05
318.15 K, x1 = 0.4396	959.3	8.91
318.15 K, x1 = 0.5621	995.2	13.87
318.15 K, x1 = 0.649	1019.2	19.95
318.15 K, x1 = 0.7407	1043.2	31.92
318.15 K, x1 = 0.8495	1070.1	56.98
318.15 K, x1 = 0.9397	1091.1	99.97
318.15 K, x1 = 1	1104.7	140.18
323.15 K, x1 = 0.0806	834.4	3.56
323.15 K, x1 = 0.1591	863	3.84
323.15 K, x1 = 0.2392	891	4.28
323.15 K, x1 = 0.3493	927.5	5.25
323.15 K, x1 = 0.4396	955.7	6.46
323.15 K, x1 = 0.5621	991.6	9.46
323.15 K, x1 = 0.649	1015.7	13.58
323.15 K, x1 = 0.7407	1039.8	22.08
323.15 K, x1 = 0.8495	1066.8	42.16
323.15 K, x1 = 0.9397	1087.9	76.46
323.15 K, x1 = 1	1101.6	110.94

CCCCCCn1cc[n+](C)c1.O=[N+]([O-])[O-] [1-hexyl-3-methylimidazolium nitrate] + CCCCCCCCCO
Settings	mass density [kg/m3]	viscosity [mPa·s]
293.15 K, x1 = 0.0819	856.1	15.74
293.15 K, x1 = 0.1609	882.8	22.23
293.15 K, x1 = 0.2386	908.3	30.27
293.15 K, x1 = 0.3483	942.9	48.53
293.15 K, x1 = 0.4392	970.5	71.12
293.15 K, x1 = 0.5588	1005.4	117.49
293.15 K, x1 = 0.6508	1031.3	177.42
293.15 K, x1 = 0.7394	1055.3	263.63
293.15 K, x1 = 0.8497	1083.9	413.05
293.15 K, x1 = 0.9456	1107.6	630.96
293.15 K, x1 = 1	1120.3	804.17
298.15 K, x1 = 0.0819	852.5	12.59
298.15 K, x1 = 0.1609	879.2	16.67
298.15 K, x1 = 0.2386	904.7	21.93
298.15 K, x1 = 0.3483	939.3	33.81
298.15 K, x1 = 0.4392	967	48.19
298.15 K, x1 = 0.5588	1001.9	79.43
298.15 K, x1 = 0.6508	1027.9	118.3
298.15 K, x1 = 0.7394	1052	175.79
298.15 K, x1 = 0.8497	1080.7	288.4
298.15 K, x1 = 0.9456	1104.5	439.6
298.15 K, x1 = 1	1117.5	545.25
303.15 K, x1 = 0.0819	849	10.19
303.15 K, x1 = 0.1609	875.5	13.18
303.15 K, x1 = 0.2386	901	16.79
303.15 K, x1 = 0.3483	935.6	24.27
303.15 K, x1 = 0.4392	963.3	33.11
303.15 K, x1 = 0.5588	998.3	51.88
303.15 K, x1 = 0.6508	1024.3	76.03
303.15 K, x1 = 0.7394	1048.4	113.24
303.15 K, x1 = 0.8497	1077.3	188.34
303.15 K, x1 = 0.9456	1101.2	294.59
303.15 K, x1 = 1	1114.3	369.14
308.15 K, x1 = 0.0819	845.5	8.41
308.15 K, x1 = 0.1609	872	10.05
308.15 K, x1 = 0.2386	897.4	12.25
308.15 K, x1 = 0.3483	932	16.94
308.15 K, x1 = 0.4392	959.7	22.08
308.15 K, x1 = 0.5588	994.7	32.81
308.15 K, x1 = 0.6508	1020.6	45.71
308.15 K, x1 = 0.7394	1044.8	68.08
308.15 K, x1 = 0.8497	1073.7	116.37
308.15 K, x1 = 0.9456	1097.8	192.31
308.15 K, x1 = 1	1111.1	257.59
313.15 K, x1 = 0.0819	841.9	6.7
313.15 K, x1 = 0.1609	868.3	7.87
313.15 K, x1 = 0.2386	893.7	9.06
313.15 K, x1 = 0.3483	928.3	11.04
313.15 K, x1 = 0.4392	956	13.27
313.15 K, x1 = 0.5588	991	18.92
313.15 K, x1 = 0.6508	1017	26.73
313.15 K, x1 = 0.7394	1041.2	41.3
313.15 K, x1 = 0.8497	1070.2	73.71
313.15 K, x1 = 0.9456	1094.4	136.37
313.15 K, x1 = 1	1107.8	185.67
318.15 K, x1 = 0.0819	838.3	5.28
318.15 K, x1 = 0.1609	864.7	5.78
318.15 K, x1 = 0.2386	890	6.35
318.15 K, x1 = 0.3483	924.6	7.36
318.15 K, x1 = 0.4392	952.3	8.61
318.15 K, x1 = 0.5588	987.4	11.46
318.15 K, x1 = 0.6508	1013.5	15.85
318.15 K, x1 = 0.7394	1037.8	25.39
318.15 K, x1 = 0.8497	1066.9	53.43
318.15 K, x1 = 0.9456	1091.2	101.71
318.15 K, x1 = 1	1104.7	140.18
323.15 K, x1 = 0.0819	834.7	4.15
323.15 K, x1 = 0.1609	861.1	4.25
323.15 K, x1 = 0.2386	886.4	4.41
323.15 K, x1 = 0.3483	921	4.84
323.15 K, x1 = 0.4392	948.6	5.33
323.15 K, x1 = 0.5588	983.8	6.84
323.15 K, x1 = 0.6508	1009.9	9.63
323.15 K, x1 = 0.7394	1034.3	16.2
323.15 K, x1 = 0.8497	1063.5	37.68
323.15 K, x1 = 0.9456	1088	78.73
323.15 K, x1 = 1	1101.6	110.94
